Patent US10266838B2, “Methods for enhancing root growth of plants” (Academia Sinica, priority 2013, dated 2019)

Assays:
rice half seeds = assay: rice half-seed transient expression assay, GUS activity; type: cell-based; conditions: rice half seeds transfected by particle bombardment, with vs without 10 μM ABA for 16 h
Method: (§1) (A) Three copies of ABRC321 confer high ABA inducibility in a rice half-seed transient expression assay. Rice half seeds were transfected with plasmids shown in FIG. 1 by particle bombardment, and incubated with (+) or without (−) 10 μM ABA for 16 h, and GUS activity was analyzed. (B) Three copies of ABRC321 confer high ABA inducibility in leaves and roots in transgenic rice. Constructs shown in FIG. 1 were introduced into the rice genome. Leaves and roots of 10-day-old T2 seedlings of four transgenic lines were collected and incubated in water with (+) or without (−) 10 μM ABA for 16 h, and GUS activity was analyzed. Numbers above bars indicate fold induction of GUS activity by ABA. Error bars represent SD (n=3).
Two 56-bp complementary oligonucleotides, containing the CE3 and A2 elements from the HVA1 promoter and the CE1 element from the HVA22 promoter (Shen Q, Zhang P, & Ho T H (1996) Plant Cell 8(7):1107-1119) and restriction sites KpnI, XhoI and XbaI were synthesized, annealed, and designated as ABRC321 (FIG. 1A). ABRC321 was self-ligated in two or three copies in correct orientations. For expression of GUS under the control of ABRC321, 1-3 copies ABRC321 was inserted into the XbaI site in MP64, so that the ABRC321 was fused upstream of the barley Amy64 minimal promoter, generating constructs 1xABRC321-GUS, 2x-ABRC321-GUS and 3xABRC321-GUS (FIG. 1(B)). For expression of HVA1 under the control of 3xABRC321, GUS cDNA in construct 3xABRC321-GUS was replaced with HVA1 cDNA, generating construct 3xABRC321-HVA1 (FIG. 1(C)) (SEQ ID NO: 6).
In this study, we used a […] promoter, ABRC321, to express recombinant HVA1 (rHVA1) in plants. […] ABRC321 was generated by fusion of coupling element CE3 and ABRE2 (A2) from the HVA1 ABRC3 and coupling element CE1 from the HVA22 ABRC1 (Shen Q, Zhang P, & Ho T H (1996) Plant Cell 8(7):1107-1119). The reporter gene GUS was fused downstream of 1-3 tandem repeats of ABRC321 and the Amy64 minimal promoter.

Tainung 67 seedlings = assay: root growth of rice seedlings on half-strength MS medium containing ABA and/or NPA; type: in vivo, Oryza sativa L. cv Tainung 67; design: lateral root morphology: dose or concentration left out as unconfirmed
Excerpt: Three-day-old seedlings of Tainung 67 (T) transgenic lines were transferred to half-strength MS medium without sugar but containing ABA or sorbitol, and root morphology was examined. (A) Morphology of various branch roots.
Three-day-old seedlings of Tainung 67 (T) transgenic lines that containing seminal roots only were transferred to half-strength MS (½) medium without sugar but containing ABA and/or NPA for 11 days, and root morphology was examined. […] The dots indicate starting points of root growth after transferring to MS medium containing ABA and/or NPA.
Rice cultivars Oryza sativa L. cv Tainung 67 and Oryza sativa L. cv Kitaake were used for all experiments. Plasmid was introduced into Agrobacerium tumefaciens strain EHA101 and rice transformation was performed as described (Chen P-W, et al. (2002) J Biol Chem 277:13641-13649). Homozygous transgenic lines were used in all experiments. For observation of root growth, transgenic rice seeds were germinated on the surface of half-strength MS medium without sugar but with or without ABA. For hydroponic culture, Yoshida solution was used. Seedlings were normally grown in 28′C incubator with 12 hr daily light.
Rice branch roots could be classified into four types: seminal root, also called radical, the first root grows during germination; crown roots, roots emerge from the node of coleoptile; adventitious roots, roots differentiate from the nodes of main stem and tillers, lateral roots, roots branch from above three types of roots and can bear additional large or small lateral roots until the fifth order of branching. The number of each type of root was measured by simple counting. Root length was measured, number of roots was counted, and lateral root density was determined by dividing lateral root number with root length. Error bars represent SD (n=12). Significance levels: *P<0.05, **P<0.01, ***P<0.001.
In medium without any treatment, newly grown crown and lateral roots were more abundant in Tainung 67 transgenic lines than in WT (FIG. 12(A)). […] In the presence of NPA, growth of all types of roots was inhibited (FIG. 12(C)).

PIN genes = assay: quantitative real-time RT-PCR of auxin transporter genes in roots; type: in vivo, rice; conditions: Yoshida solution with or without 0.2 μM ABA for 14 days, root RNA
Method: Four-day-old seedlings of Tainung 67 (T) transgenic lines were germinated on MS medium for four days and transfer to full strength Yoshida solution with or without 0.2 μM ABA for 14 days. Total RNA was extracted from roots and subjected to quantitative real-time RT-PCR.
To determine whether the promotion of root growth by HVA1 in transgenic rice involves the auxin (IAA)-dependent pathway, the expression of various genes involved in auxin transport and signaling were determined. […] The rice PIN family is encoded by 12 genes, with expression of each being spatially and temporally regulated (Wang J R, et al. (2009) Mol Plant 2(4):823-831).

[1] = test system: leaves and roots in transgenic rice; assay: GUS activity in leaves and roots of stably transformed transgenic rice; type: in vivo; conditions: 10-day-old T2 seedlings, 10 μM ABA for 16 h, compared among all constructs
Method: as §1
All ABRC321:GUS constructs were also used for rice stable transformation.

[2] = 0.2 μM ABA plus 1 μM NPA, 11 days

Molecule: 1xABRC321: synthetic ABA-inducible promoter, one copy of ABRC321 (CE3, A2, CE1 elements) fused upstream of Amy64 minimal promoter and GUS (DNA GGTACCGCAACGCGTGTCCTCCCTACGTGGCGGCTCGAGATTGCCACCGGTCTAGA; synthetic promoter element in GUS reporter construct, further chemistry not given here)
- induction of GUS activity by ABA (rice half seeds): 19 fold

Molecule: CC1=CC(=O)CC(C)(C)[C@@]1(O)/C=C/C(C)=C\C(=O)O [ABA, abscisic acid]
- root length and lateral root density (Tainung 67 seedlings; ABA concentration of 0.1 μM, 14 days): significantly increased
- root density (Tainung 67 seedlings; ABA concentrations higher than 0.5 M, 14 days): decreased
- lateral root morphology (Tainung 67 seedlings; ABA concentrations, 14 days): shorter and thicker
- expression of several PIN genes (PIN genes): up-regulated

Molecule: O=C(O)c1ccccc1C(=O)Nc1cccc2ccccc12 [NPA, N-(1-naphthyl) phtalamic acid]
- growth of crown roots and lateral roots (Tainung 67 seedlings; [2]): also inhibited
- growth of seminal roots (Tainung 67 seedlings; [2]): continued to grow
- growth of all types of roots (Tainung 67 seedlings; 1 μM NPA only, 11 days, WT and transgenic lines): inhibited

B1: 3xABRC321: synthetic ABA-inducible promoter, three tandem copies of ABRC321 driving GUS (nucleic acid)
DNA: GGTACCGCAACGCGTGTCCTCCCTACGTGGCGGCTCGAGATTGCCACCGGGGTACCGCAACGCGTGTCCTCCCTACGTGGCGGCTCGAGATTGCCACCGGGGTACCGCAACGCGTGTCCTCCCTACGTGGCGGCTCGAGATTGCCACCGGTCTAGA
modifications: Synthetic prompter 3XABRC321
notes: synthetic ABA-inducible promoter, three tandem copies of ABRC321 driving GUS
- induction of GUS activity by ABA (rice half seeds): 33 fold
- ABA induction of GUS activity in leaves and roots [1]: most highly induced by ABA among all constructs

B2: 2xABRC321: synthetic ABA-inducible promoter, two tandem copies of ABRC321 driving GUS (nucleic acid)
DNA: GGTACCGCAACGCGTGTCCTCCCTACGTGGCGGCTCGAGATTGCCACCGGGGTACCGCAACGCGTGTCCTCCCTACGTGGCGGCTCGAGATTGCCACCGGTCTAGA
modifications: synthetic promoter element in GUS reporter construct, further chemistry not given here
- induction of GUS activity by ABA (rice half seeds): 20 fold
